Data taken from patent publication US9695155B2, “Herbicidal substituted pyrimidinyloxy benzene compounds” (E. I. DU PONT DE NEMOURS AND COMPANY, priority 2013, dated 2017).

Columns and labels:
[1] = system: large (Lg) crabgrass; experiment: Test C preemergence; format: in vivo, Digitaria sanguinalis; settings: for Crabgrass, Large plant response rating: preemergence; for Plant response rating, Crabgrass, Large: Preemergence, 31 g ai/ha, scale 0 to 100, 0 no effect, 100 complete control
Outline: (§1)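 Seeds were sown in loam–sand blend and sprayed preemergence, while plants at 1- to 4-leaf stage (2–18 cm) in peat-based medium received postemergence sprays; test chemicals were formulated in a non-phytotoxic solvent with surfactant. After 13–15 days in a greenhouse, injury was rated visually against controls, 0 (no effect) to 100 (complete control).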

[2] = system: wild oat; experiment: Test C postemergence; format: in vivo, Avena fatua; settings: for Plant response rating, Oat, Wild: scale 0 to 100 (0 no effect, 100 complete control)
Outline: as §1

[3] = system: barnyardgrass; experiment: Test C preemergence; format: in vivo, Echinochloa crus-galli; settings: for Barnyardgrass plant response rating: preemergence; for Plant response rating, Barnyardgrass: Preemergence, 31 g ai/ha, scale 0 to 100, 0 no effect, 100 complete control
Outline: as §1

[4] = system: barnyardgrass; experiment: Test B flooded paddy test; format: in vivo, Echinochloa crus-galli; settings: Flood, 250 g ai/ha; 0 to 100 scale where 0 is no effect and 100 is complete control
Outline: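 Plants at 2-leaf stage; pots flooded to 3 cm above soil and compound applied directly into paddy water, depth held throughout. After 13 to 15 days in greenhouse, visual rating versus controls on 0 (no effect) to 100 (complete control) scale.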

[5] = system: soybean; experiment: Test C preemergence; format: in vivo, Glycine max; settings: for Soybean plant response rating: preemergence; for Plant response rating, Soybean: Preemergence, 31 g ai/ha, scale 0 to 100, 0 no effect, 100 complete control
Outline: as §1

[6] = system: Italian ryegrass; experiment: Test C preemergence; format: in vivo, Lolium multiflorum; settings: for Ryegrass, Italian plant response rating: preemergence; for Plant response rating, Ryegrass, Italian: Preemergence, 31 g ai/ha, scale 0 to 100, 0 no effect, 100 complete control
Outline: as §1

[7] = system: oilseed rape; experiment: Test C preemergence; format: in vivo, Brassica napus; settings: for Oilseed Rape plant response rating: preemergence; for Plant response rating, Oilseed Rape: Preemergence, 31 g ai/ha, scale 0 to 100, 0 no effect, 100 complete control
Outline: as §1

[8] = system: chickweed; experiment: Test C postemergence; format: in vivo, Stellaria media; settings: for Plant response rating, Chickweed / Chickweed plant response rating: scale 0 to 100 (0 no effect, 100 complete control)
Outline: as §1

[9] = system: barnyardgrass; experiment: Test A preemergence; format: in vivo, Echinochloa crus-galli; settings: for Plant response rating, Barnyardgrass: 125 g ai/ha; for Barnyardgrass plant response rating: 500 g ai/ha
Outline: (§2)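 Compounds in non-phytotoxic solvent with surfactant applied as soil spray preemergence, or postemergence to plants 2-10 cm at one- to two-leaf stage, in loam/sand. After approximately 10 days in greenhouse, injury rated visually versus untreated controls, 0 (no effect) to 100 (complete control).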

[10] = system: galium; experiment: Test C preemergence; format: in vivo, Galium aparine; settings: for Galium plant response rating: preemergence; for Plant response rating, Galium: Preemergence, 31 g ai/ha, scale 0 to 100, 0 no effect, 100 complete control
Outline: as §1

[11] = system: corn; experiment: Test A postemergence; format: in vivo, Zea mays
Outline: as §2

[12] = 16 g ai/ha, scale 0 to 100 (0 no effect, 100 complete control)
[13] = 62 g ai/ha, scale 0 (no effect) to 100 (complete control)
[14] = 125 g ai/ha, scale 0 (no effect) to 100 (complete control)
[15] = 16 g ai/ha, postemergence, 0 is no effect, 100 is complete control
[16] = 125 g ai/ha, postemergence, visual rating
[17] = 0 to 100 scale where 0 is no effect and 100 is complete control
[18] = 125 g ai/ha, 0 to 100 scale where 0 is no effect and 100 is complete control
[19] = 500 g ai/ha, 0 to 100 scale where 0 is no effect and 100 is complete control
[20] = Postemergence, 31 g ai/ha, 13 to 15 days
[21] = 16 g ai/ha, postemergence, visual rating, 13 to 15 days
[22] = 0 to 100 scale, 0 no effect, 100 complete control, approx. 10 days

Structure (SMILES)	Crabgrass, Large plant response rating [1, 12]	Crabgrass, Large plant response rating [1, 13]	Crabgrass, Large plant response rating [1, 14]	Plant response rating, Crabgrass, Large [1]	Plant response rating, Oat, Wild ([2]; Postemergence, 62 g ai/ha)	Barnyardgrass plant response rating [3, 12]	Barnyardgrass plant response rating [3, 13]	Barnyardgrass plant response rating [3, 14]	Plant response rating, Barnyardgrass [3]	Plant response rating, Barnyardgrass [4]	Soybean plant response rating [5, 12]	Soybean plant response rating [5, 13]	Soybean plant response rating [5, 14]	Plant response rating, Soybean [5]	Ryegrass, Italian plant response rating [6, 12]	Ryegrass, Italian plant response rating [6, 13]	Ryegrass, Italian plant response rating [6, 14]	Plant response rating, Ryegrass, Italian [6]	Oilseed Rape plant response rating [7, 12]	Oilseed Rape plant response rating [7, 13]	other results
Clc1cnc(Oc2cccc(Br)c2-n2cc(Br)nn2)nc1 [Compound 129]	75	100	100	95	15	5	40	90	15	0	10	40	80	10	0	10	35	0	50	100	Plant response rating (0 to 100), Oat, Wild [2, 15]: 0; Plant response rating, Oat, Wild [2, 16]: 10; Oilseed Rape plant response rating [7, 14]: 100; Plant response rating, Oilseed Rape [7]: 85; Plant response rating (0 to 100), Chickweed [8, 15]: 50; Plant response rating, Chickweed [8, 16]: 55; Plant response rating, Chickweed ([8]; Postemergence, 62 g ai/ha): 70; Plant response rating, Barnyardgrass [9, 17]: 70; Barnyardgrass plant response rating [9, 17]: 90; Galium plant response rating [10, 12]: 50; Galium plant response rating [10, 13]: 95; Galium plant response rating [10, 14]: 100; Plant response rating, Galium [10]: 80; Corn plant response rating [11, 18]: 30; Plant response rating, Corn [11, 19]: 50
N#Cc1cccc(Oc2ncc(Br)cn2)c1-n1cc(I)cn1 [Compound 88]	45	100	100	70	10	5	35	95	5	0	0	40	90	5	0	0	5	0	10	70	Plant response rating (0 to 100), Oat, Wild ([2]; 125 g ai/ha, postemergence): 10; Plant response rating, Oat, Wild [2, 20]: 5; Oilseed Rape plant response rating [7, 14]: 100; Plant response rating, Oilseed Rape [7]: 100; Chickweed plant response rating [8, 21]: 5; Plant response rating (0 to 100), Chickweed ([8]; 125 g ai/ha, postemergence): 90; Plant response rating, Chickweed [8, 20]: 15; Plant response rating, Chickweed ([8]; Postemergence, 62 g ai/ha): 20; Plant response rating, Barnyardgrass [9, 17]: 60; Barnyardgrass plant response rating [9, 22]: 80; Galium plant response rating [10, 12]: 0; Galium plant response rating [10, 13]: 90; Galium plant response rating [10, 14]: 80; Plant response rating, Galium [10]: 50; Plant response rating, Corn [11, 18]: 30; Plant response rating, Corn [11, 19]: 50
CCOc1cn(-c2c(Br)cccc2Oc2ncc(Cl)cn2)nn1 [Compound 84]	45	100	100	98	5	0	40	85	25	0	0	60	70	20	0	5	5	5	50	100	Plant response rating (0 to 100), Oat, Wild ([2]; 125 g ai/ha, postemergence): 15; Plant response rating, Oat, Wild [2, 20]: 0; Oilseed Rape plant response rating [7, 14]: 100; Plant response rating, Oilseed Rape [7]: 85; Chickweed plant response rating [8, 21]: 10; Plant response rating (0 to 100), Chickweed ([8]; 125 g ai/ha, postemergence): 50; Plant response rating, Chickweed [8, 20]: 10; Plant response rating, Chickweed ([8]; Postemergence, 62 g ai/ha): 40; Plant response rating, Barnyardgrass [9, 17]: 50; Barnyardgrass plant response rating [9, 22]: 90; Galium plant response rating [10, 12]: 80; Galium plant response rating [10, 13]: 100; Galium plant response rating [10, 14]: 100; Plant response rating, Galium [10]: 90; Plant response rating, Corn [11, 18]: 20; Plant response rating, Corn ([11]; 500 g ai/ha, 0 to 100 scale, 0 no effect, 100 complete control): 70
